# In patent US6380169B1, “Metal complex containing oligonucleoside cleavage compounds and therapies” (ISIS Pharmaceuticals, Inc., priority 1994, dated 2002):
# Tested on: 5′-capped RNA transcript (SEQ ID NO:1)
# Test: Cleavage of 3′-end-labeled, 5′-capped RNA by Eu[THED]^3+ (single strand or hybridized to complementary 18-mer DNA oligomer)
# Assay type: biochemical
# Conditions: 1 mM Eu[THED]^3+
# Experimental: In particular, the ability of Eu[THED]^3+ to hydrolyze 5′-capped RNA was established using a 3′-radiolabeled, 5′-capped RNA transcript.
# A target oligonucleotide transcript having the following sequence was used (SEQ ID NO:1):
# 5′-capped RNA was made from the above amplicon using a T7 MEGAshortscript™ transcription kit (Ambion). 5′-capped transcripts were synthesized in a 20 μL reaction volume containing transcription buffer, T7 RNA polymerase, 7.5 mM rNTPs (except rGTP), 1.9 mM rGTP, 7.5 mM ^7MeGpppG and 200 nM DNA amplicon template. For synthesis of uncapped RNA, the capping dinucleotide was omitted from the reaction and rGTP concentration was increased to 7.5 mM. Reaction mixtures were incubated four hours at 37° C. After the transcription reaction was complete, template DNA was digested with 1 U DNase for 15 minutes at 37° C. Transcripts were purified from unincorporated nucleotides and truncated message by PAGE. The transcripts were visualized by UV back shadowing, and the RNA in the excised gel bands was purified using an RNaid™ kit (Bio 101) which is designed specifically for purification of RNA from polyacrylamide gels. As expected, the product of the 5′-capped RNA reaction contained a band that ran one base slower than the uncapped transcript on a 15% gel.
# Transcripts were 3′ end-labeled with ^32p cordycepin triphosphate using terminal transferase. This enzyme prefers DNA as a substrate, but limited labeling of RNA can be achieved with the use of Co^++. As expected, 3′-end-labeling occurred, but the extent of labeling was low.
# After preparing 3′-end-labeled, 5′-capped RNA, the ability of Eu[THED]^3+ to cleave (or “decapitate”) the cap structure of the RNA was tested. The reaction conditions were as follows: 1 mM Eu[THED]^3+, 75 μM capped RNA target (˜3 mM with respect to phosphate bonds), 20 mM Tris-HCl, pH 7.0, 100 mM NaCl and 0.2% SDS. A second set of samples further contained 100 μM of an 18-mer DNA oligomer which was complementary to the sequence immediately adjacent to the 5′-cap. […]
# [1] = Hybrid (100 μM 18-mer DNA), time 0 min
# [2] = Hybrid (100 μM 18-mer DNA), time 15 min
# [3] = Hybrid (100 μM 18-mer DNA), time 30 min
# [4] = Hybrid (100 μM 18-mer DNA), time 60 min
# [5] = Hybrid (100 μM 18-mer DNA), time 120 min
# [6] = Hybrid (100 μM 18-mer DNA), time 180 min
substance,measurement,setting,value
"europium (III) complex of 1,4,7,10-tetrakis (2-hydroxyethyl)-1,4,7,10-tetraazacyclododecane [Eu[THED]]",Capped RNA counts/area,[1],3975 counts/area
same,Decapitated RNA counts/area,[1],1031 counts/area
same,Capped RNA counts/area,[2],4073 counts/area
same,Decapitated RNA counts/area,[2],923 counts/area
same,Capped RNA counts/area,[3],4070 counts/area
same,Decapitated RNA counts/area,[3],1073 counts/area
same,Capped RNA counts/area,[4],3315 counts/area
same,Decapitated RNA counts/area,[4],1583 counts/area
same,Capped RNA counts/area,[5],3509 counts/area
same,Decapitated RNA counts/area,[5],1946 counts/area
same,Capped RNA counts/area,[6],2658 counts/area
same,Decapitated RNA counts/area,[6],1934 counts/area
same,backbone cleavage of RNA,"either data set (ssRNA and hybrid), 75 μM capped RNA",no evidence of backbone cleavage
same,Capped RNA counts/area,"ssRNA, time 0 min",3266 counts/area
same,Decapitated RNA counts/area,"ssRNA, time 0 min",1130 counts/area
same,Capped RNA counts/area,"ssRNA, time 30 min",3481 counts/area
same,Decapitated RNA counts/area,"ssRNA, time 30 min",1736 counts/area
same,Capped RNA counts/area,"ssRNA, time 120 min",2232 counts/area
same,Decapitated RNA counts/area,"ssRNA, time 120 min",2195 counts/area
same,Capped RNA counts/area,"ssRNA, time 180 min",1982 counts/area
same,Decapitated RNA counts/area,"ssRNA, time 180 min",1949 counts/area
